Measurements: ChEMBL document CHEMBL4028891, “X-ray Characterization and Structure-Based Optimization of Striatal-Enriched Protein Tyrosine Phosphatase Inhibitors” (J Med Chem, 2017)
pKd: −log10 of the molar value.

Target: T1, Tyrosine-protein phosphatase non-receptor type 5 (Homo sapiens, UniProt P54829)
T1 sequence (P54829 whole entry): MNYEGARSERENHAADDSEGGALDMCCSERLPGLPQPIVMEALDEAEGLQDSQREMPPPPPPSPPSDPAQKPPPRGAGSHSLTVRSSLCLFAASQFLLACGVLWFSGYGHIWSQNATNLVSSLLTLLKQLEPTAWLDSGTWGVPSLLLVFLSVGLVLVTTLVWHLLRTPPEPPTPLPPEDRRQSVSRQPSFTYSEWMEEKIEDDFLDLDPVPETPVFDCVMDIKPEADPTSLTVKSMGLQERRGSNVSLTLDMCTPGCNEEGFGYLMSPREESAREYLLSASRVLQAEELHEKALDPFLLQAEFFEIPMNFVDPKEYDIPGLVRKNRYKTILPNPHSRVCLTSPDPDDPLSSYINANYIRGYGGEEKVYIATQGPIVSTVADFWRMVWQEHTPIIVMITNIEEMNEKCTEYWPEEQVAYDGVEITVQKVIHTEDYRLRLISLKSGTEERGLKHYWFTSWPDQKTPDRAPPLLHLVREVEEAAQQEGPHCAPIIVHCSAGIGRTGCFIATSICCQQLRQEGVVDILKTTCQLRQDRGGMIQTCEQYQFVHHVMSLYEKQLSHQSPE
Experiment: Binding affinity to 6His-tagged STEP phosphatase domain (258 to 539 residues) (unknown origin) expressed in Escherichia coli BL21 Gold (DE3) after 90 secs at 30 degC by isothermal titration calorimetry assay

pKd | Structure (SMILES)
4.57 | O=P(O)(O)[C@H](O)c1ccc(-c2cccc([C@@H](O)c3ccc(Cl)c(Cl)c3)c2)cc1
4.50 | O=P(O)(O)[C@H](O)c1ccc(-c2cccc([C@H](O)c3ccc(Cl)c(Cl)c3)c2)cc1
4.15 | O=P(O)(O)C(F)(F)c1cccc(-c2cccc(C3CCCCC3)c2O)c1
